Reference: patent US10670605B2, “Cysteine reactive probes and uses thereof” (The Scripps Research Institute, priority 2015, dated 2020)
Blank lines part the entries; values can stand above or below the molecule they belong to.

Tests used:
Assay in all cases: Competitive isoTOP-ABPP, cell lysates
Format in all cases: binding
DDX59 C414 (Q5T1V6) = target: T1, DDX59 C414 (Q5T1V6) (Homo sapiens, UniProt Q5T1V6); settings: for isoTOP-ABPP ratio (reactivity profile), Q5T1V6_C414: 500 μm in-vitro ramos
T1 sequence (Q5T1V6 1-619): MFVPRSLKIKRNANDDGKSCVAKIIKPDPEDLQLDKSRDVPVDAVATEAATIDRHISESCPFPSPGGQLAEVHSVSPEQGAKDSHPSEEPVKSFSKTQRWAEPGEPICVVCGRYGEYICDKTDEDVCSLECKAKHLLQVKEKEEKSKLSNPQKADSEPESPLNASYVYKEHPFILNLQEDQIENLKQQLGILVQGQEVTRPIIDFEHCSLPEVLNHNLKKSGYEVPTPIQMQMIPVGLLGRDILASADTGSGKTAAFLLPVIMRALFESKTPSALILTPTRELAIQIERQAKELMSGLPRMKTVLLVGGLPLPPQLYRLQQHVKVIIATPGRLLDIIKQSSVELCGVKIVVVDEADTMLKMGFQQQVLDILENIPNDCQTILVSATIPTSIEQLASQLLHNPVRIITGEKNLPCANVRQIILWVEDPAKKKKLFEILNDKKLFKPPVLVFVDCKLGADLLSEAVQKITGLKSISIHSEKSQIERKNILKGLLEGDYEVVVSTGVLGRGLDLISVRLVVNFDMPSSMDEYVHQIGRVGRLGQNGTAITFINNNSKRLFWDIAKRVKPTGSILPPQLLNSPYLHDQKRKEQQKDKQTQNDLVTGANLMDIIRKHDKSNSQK

USP48 C39 (Q86UV5) = target: T2, USP48 C39 (Q86UV5) (Homo sapiens, UniProt Q86UV5); settings: for isoTOP-ABPP reactivity profile ratio, Q86UV5_C39 / isoTOP-ABPP reactivity ratio, Q86UV5_C39: 500 μm; for isoTOP-ABPP ratio, Q86UV5_C39: 500 μM, invitro; for R value (DMSO/fragment): 250 μM, in vitro
T2 sequence (Q86UV5 1-1035): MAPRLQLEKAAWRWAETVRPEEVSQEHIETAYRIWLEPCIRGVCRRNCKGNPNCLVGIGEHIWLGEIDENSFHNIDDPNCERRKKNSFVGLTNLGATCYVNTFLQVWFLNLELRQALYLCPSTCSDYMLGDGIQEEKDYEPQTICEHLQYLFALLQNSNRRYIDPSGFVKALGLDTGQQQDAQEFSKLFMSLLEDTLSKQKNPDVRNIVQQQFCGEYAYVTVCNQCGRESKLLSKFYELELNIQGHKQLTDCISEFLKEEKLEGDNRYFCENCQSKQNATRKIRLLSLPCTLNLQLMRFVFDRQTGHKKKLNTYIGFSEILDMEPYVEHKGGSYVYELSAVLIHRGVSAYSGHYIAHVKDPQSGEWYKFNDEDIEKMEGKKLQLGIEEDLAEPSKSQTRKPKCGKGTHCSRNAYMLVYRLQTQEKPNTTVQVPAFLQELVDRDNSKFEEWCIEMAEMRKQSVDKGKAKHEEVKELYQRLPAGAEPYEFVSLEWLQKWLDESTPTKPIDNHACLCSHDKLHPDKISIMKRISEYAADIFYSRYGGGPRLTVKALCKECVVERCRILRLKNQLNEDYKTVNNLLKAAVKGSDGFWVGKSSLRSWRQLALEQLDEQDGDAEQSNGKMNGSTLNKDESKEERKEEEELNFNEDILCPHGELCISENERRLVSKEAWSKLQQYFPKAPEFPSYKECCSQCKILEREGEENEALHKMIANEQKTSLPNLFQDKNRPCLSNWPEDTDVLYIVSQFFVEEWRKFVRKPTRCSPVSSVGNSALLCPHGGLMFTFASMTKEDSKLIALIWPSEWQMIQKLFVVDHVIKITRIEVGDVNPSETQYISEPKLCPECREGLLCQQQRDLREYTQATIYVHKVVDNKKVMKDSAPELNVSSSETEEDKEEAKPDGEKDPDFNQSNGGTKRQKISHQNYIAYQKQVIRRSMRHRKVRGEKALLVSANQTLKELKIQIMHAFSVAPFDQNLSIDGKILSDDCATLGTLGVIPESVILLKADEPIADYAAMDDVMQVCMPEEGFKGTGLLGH

MLTK C22 (Q9NYL2) = MLTK C22 (Q9NYL2) (Homo sapiens, UniProt Q9NYL2)
Sequence of MLTK C22 (Q9NYL2) (Q9NYL2 whole entry): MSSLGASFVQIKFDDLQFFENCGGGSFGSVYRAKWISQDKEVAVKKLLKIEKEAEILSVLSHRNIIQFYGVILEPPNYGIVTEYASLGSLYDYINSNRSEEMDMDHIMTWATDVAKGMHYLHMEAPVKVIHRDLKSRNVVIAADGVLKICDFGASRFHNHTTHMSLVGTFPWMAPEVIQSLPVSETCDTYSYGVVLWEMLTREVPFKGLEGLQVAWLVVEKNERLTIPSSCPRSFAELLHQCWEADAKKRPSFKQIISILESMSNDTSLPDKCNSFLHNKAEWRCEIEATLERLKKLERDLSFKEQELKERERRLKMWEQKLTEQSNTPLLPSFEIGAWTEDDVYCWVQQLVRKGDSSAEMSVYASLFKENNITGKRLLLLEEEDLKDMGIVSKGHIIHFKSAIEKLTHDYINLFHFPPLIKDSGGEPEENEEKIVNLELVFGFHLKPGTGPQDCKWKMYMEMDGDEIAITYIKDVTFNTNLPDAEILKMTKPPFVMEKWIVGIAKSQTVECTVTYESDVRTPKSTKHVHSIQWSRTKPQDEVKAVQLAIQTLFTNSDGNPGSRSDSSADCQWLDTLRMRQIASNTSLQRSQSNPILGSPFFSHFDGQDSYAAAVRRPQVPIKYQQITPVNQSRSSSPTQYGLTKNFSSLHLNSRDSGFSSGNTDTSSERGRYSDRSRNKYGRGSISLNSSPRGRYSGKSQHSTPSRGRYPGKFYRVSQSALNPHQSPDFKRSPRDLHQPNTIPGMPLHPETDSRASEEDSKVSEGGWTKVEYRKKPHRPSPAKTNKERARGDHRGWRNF

LRBA C2675 (P50851) = LRBA C2675 (P50851) (Homo sapiens, UniProt P50851)
Sequence of LRBA C2675 (P50851) (P50851 whole entry): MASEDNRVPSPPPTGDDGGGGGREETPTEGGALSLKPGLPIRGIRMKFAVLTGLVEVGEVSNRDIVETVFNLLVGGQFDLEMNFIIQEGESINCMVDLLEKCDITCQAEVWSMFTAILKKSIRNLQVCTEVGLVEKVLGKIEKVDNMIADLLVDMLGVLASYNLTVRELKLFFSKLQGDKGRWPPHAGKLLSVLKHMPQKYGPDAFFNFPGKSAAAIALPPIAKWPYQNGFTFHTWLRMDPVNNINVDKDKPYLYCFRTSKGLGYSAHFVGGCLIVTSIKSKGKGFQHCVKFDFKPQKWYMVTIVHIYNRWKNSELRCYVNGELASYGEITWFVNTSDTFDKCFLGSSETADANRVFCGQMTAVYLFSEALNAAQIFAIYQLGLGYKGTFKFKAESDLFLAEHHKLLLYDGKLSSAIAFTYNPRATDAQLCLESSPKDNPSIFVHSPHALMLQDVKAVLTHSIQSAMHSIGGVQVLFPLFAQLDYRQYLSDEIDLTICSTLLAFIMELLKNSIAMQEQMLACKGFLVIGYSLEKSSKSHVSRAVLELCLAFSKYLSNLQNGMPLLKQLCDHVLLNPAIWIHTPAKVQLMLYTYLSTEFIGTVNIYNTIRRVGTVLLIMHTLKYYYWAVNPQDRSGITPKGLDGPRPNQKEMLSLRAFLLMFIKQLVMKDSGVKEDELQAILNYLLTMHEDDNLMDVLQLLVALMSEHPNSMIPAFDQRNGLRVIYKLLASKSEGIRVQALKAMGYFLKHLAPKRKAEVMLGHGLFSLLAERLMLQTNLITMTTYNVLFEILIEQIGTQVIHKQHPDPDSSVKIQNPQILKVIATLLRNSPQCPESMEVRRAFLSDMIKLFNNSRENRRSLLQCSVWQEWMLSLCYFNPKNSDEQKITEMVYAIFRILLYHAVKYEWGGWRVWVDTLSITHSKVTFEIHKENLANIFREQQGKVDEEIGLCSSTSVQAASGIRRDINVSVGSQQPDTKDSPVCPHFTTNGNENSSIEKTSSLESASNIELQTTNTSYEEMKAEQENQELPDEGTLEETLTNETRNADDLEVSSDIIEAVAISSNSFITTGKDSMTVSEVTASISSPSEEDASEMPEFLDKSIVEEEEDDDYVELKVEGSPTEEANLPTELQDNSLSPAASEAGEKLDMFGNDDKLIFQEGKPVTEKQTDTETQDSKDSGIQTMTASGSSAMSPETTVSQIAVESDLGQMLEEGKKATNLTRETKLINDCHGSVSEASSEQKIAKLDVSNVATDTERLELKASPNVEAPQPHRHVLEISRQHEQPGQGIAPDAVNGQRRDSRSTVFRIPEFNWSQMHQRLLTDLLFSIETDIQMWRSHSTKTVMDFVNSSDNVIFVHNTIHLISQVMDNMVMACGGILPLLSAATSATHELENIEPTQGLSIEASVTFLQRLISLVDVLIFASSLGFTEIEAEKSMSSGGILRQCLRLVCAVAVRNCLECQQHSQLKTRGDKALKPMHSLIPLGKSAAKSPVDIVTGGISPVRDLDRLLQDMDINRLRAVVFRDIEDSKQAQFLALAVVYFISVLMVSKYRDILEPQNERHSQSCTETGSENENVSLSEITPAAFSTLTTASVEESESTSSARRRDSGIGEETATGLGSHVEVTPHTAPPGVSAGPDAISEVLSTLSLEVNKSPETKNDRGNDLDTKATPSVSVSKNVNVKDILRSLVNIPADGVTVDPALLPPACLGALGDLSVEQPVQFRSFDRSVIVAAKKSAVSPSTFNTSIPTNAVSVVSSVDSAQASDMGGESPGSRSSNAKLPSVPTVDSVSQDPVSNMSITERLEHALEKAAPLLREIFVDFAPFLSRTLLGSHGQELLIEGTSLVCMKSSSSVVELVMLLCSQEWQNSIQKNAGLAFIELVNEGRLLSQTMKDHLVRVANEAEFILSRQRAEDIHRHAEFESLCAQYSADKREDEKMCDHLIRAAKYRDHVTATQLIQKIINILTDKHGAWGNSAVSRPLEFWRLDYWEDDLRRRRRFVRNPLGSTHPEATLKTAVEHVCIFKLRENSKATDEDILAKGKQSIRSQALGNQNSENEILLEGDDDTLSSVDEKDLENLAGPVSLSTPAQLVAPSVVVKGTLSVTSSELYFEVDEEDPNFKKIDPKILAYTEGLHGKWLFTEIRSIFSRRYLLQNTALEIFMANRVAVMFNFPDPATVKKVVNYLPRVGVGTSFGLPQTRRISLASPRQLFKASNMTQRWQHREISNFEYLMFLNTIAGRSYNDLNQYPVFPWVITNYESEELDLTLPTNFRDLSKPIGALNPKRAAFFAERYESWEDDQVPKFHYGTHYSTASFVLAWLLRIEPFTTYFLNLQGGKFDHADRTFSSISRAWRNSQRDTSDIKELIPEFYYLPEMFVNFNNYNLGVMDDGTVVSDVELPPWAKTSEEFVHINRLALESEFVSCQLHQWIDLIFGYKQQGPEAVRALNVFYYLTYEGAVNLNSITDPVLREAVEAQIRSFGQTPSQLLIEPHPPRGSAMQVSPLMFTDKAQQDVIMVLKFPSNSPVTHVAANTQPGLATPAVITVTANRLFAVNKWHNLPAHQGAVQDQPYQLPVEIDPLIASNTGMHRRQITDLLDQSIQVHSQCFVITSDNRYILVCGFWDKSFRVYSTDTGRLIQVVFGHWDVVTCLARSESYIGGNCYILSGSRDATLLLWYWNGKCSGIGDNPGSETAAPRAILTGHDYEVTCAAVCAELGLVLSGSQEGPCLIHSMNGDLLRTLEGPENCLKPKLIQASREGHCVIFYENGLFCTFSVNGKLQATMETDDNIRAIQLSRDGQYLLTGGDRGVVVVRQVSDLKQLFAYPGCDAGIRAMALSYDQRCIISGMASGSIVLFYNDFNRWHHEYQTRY

RRAGC C358 (Q9HB90) = RRAGC C358 (Q9HB90) (Homo sapiens, UniProt Q9HB90); settings: for isoTOP-ABPP reactivity ratio, Q9HB90_C358: 500 μm, in-vitro_ramos_231; for isoTOP-ABPP ratio, Q9HB90_C358: 500 μM, invitro, 231
Sequence of RRAGC C358 (Q9HB90) (Q9HB90 2-399 limits assumed): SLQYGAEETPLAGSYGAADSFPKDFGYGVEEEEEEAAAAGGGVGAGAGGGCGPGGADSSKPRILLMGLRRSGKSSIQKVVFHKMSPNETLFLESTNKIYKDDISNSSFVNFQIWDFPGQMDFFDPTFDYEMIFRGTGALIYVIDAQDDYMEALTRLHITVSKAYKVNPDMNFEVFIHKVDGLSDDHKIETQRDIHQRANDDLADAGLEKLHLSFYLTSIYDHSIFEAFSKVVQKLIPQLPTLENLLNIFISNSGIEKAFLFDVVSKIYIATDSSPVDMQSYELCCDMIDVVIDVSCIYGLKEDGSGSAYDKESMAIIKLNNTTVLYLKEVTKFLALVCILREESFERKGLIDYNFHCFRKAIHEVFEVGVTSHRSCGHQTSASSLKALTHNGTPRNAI
Sequence of RRAGC C358 (Q9HB90) (Q7L523 whole entry partner): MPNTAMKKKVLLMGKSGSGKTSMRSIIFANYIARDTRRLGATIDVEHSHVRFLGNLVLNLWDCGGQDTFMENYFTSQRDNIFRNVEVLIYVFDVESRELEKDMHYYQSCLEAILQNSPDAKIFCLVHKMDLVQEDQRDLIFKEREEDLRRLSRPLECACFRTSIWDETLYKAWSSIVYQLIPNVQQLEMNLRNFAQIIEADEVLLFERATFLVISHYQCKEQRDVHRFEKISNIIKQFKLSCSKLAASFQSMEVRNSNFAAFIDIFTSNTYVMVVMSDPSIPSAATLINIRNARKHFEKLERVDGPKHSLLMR

SMILES: O=C(CCl)N1CCC(C(O)(c2ccccc2)c2ccccc2)CC1 [compound 20]
isoTOP-ABPP ratio (reactivity profile), Q5T1V6_C414 (DDX59 C414 (Q5T1V6)): 3.1
isoTOP-ABPP ratio (reactivity profile), Q86UV5_C39 (USP48 C39 (Q86UV5); 500 μm in-vitro ramos): 1.8
isoTOP-ABPP ratio (reactivity profile), Q86UV5_C39 (USP48 C39 (Q86UV5); 500 μm in-vitro ramos_231): 1.1
isoTOP-ABPP ratio (reactivity profile), Q9NYL2_C22 (MLTK C22 (Q9NYL2); 500 μm in-vitro ramos_231): 20.0

isoTOP-ABPP ratio (reactivity profile), P50851_C2675 (LRBA C2675 (P50851); 500 μm in-vitro ramos): 2.6
isoTOP-ABPP ratio (reactivity profile), Q5T1V6_C414 (DDX59 C414 (Q5T1V6)): 1.4
isoTOP-ABPP ratio (reactivity profile), Q86UV5_C39 (USP48 C39 (Q86UV5); 500 μm in-vitro ramos): 1.3
isoTOP-ABPP ratio (reactivity profile), Q9NYL2_C22 (MLTK C22 (Q9NYL2); 500 μm in-vitro ramos_231): 1.4
SMILES: N#C/C(=C\c1cc(C(F)(F)F)cc(C(F)(F)F)c1)C(N)=O [compound 23]

isoTOP-ABPP reactivity profile ratio, Q9NYL2_C22 (MLTK C22 (Q9NYL2); 500 μm, in-vitro_ramos_231): 20.0
SMILES: CC1CCc2ccccc2N1C(=O)CCl (stereo not shown) [compound 45]

isoTOP-ABPP reactivity profile ratio, P50851_C2675 (LRBA C2675 (P50851); 500 μm, in-vitro_ramos): 0.9
isoTOP-ABPP reactivity profile ratio, Q86UV5_C39 (USP48 C39 (Q86UV5); in-vitro_ramos): 1.8
SMILES: O=C(CCl)Nc1cccc2ncccc12 [compound 51]

isoTOP-ABPP reactivity ratio, Q9HB90_C358 (RRAGC C358 (Q9HB90)): 1.1
isoTOP-ABPP reactivity ratio, Q5T1V6_C414 (DDX59 C414 (Q5T1V6); 500 μm, in-vitro_ramos): 1.8
isoTOP-ABPP reactivity ratio, Q5T1V6_C414 (DDX59 C414 (Q5T1V6); 500 μm, in-vitro_ramos_231): 0.9
isoTOP-ABPP reactivity ratio, Q86UV5_C39 (USP48 C39 (Q86UV5); in-vitro_ramos_231): 3.7
isoTOP-ABPP reactivity ratio, Q9NYL2_C22 (MLTK C22 (Q9NYL2); 500 μm, in-vitro_ramos_231): 1.2
SMILES: C=CC(=O)Nc1cc(F)c(N2CCN(C(=O)OC(C)(C)C)CC2)c(F)c1 [compound 38]

isoTOP-ABPP ratio (reactivity profile), P50851_C2675 (LRBA C2675 (P50851); 500 μm in-vitro ramos): 1.6
isoTOP-ABPP ratio, Q9HB90_C358 (RRAGC C358 (Q9HB90)): 1.1
isoTOP-ABPP ratio (reactivity profile), Q5T1V6_C414 (DDX59 C414 (Q5T1V6)): 1.0
isoTOP-ABPP ratio (reactivity profile), Q86UV5_C39 (USP48 C39 (Q86UV5); 500 μm in-vitro ramos): 0.7
SMILES: C=CC(=O)N(Cc1cccnc1)c1ccc(Oc2ccccc2)c(C(F)(F)F)c1 [compound 15]

isoTOP-ABPP reactivity profile ratio, Q86UV5_C39 (USP48 C39 (Q86UV5); in-vitro_ramos_231): 1.5
isoTOP-ABPP reactivity profile ratio, Q9NYL2_C22 (MLTK C22 (Q9NYL2); 500 μm, in-vitro_ramos_231): 2.9
SMILES: COc1cc(NC(=O)CCl)cc(OC)c1 [compound 43]

isoTOP-ABPP ratio (reactivity profile), P50851_C2675 (LRBA C2675 (P50851); 500 μm in-vitro ramos): 1.0
isoTOP-ABPP ratio (reactivity profile), Q9HB90_C358 (RRAGC C358 (Q9HB90); 500 μm in-vitro ramos): 0.9
isoTOP-ABPP ratio (reactivity profile), Q5T1V6_C414 (DDX59 C414 (Q5T1V6)): 1.7
isoTOP-ABPP ratio (reactivity profile), Q86UV5_C39 (USP48 C39 (Q86UV5); 500 μm in-vitro ramos): 1.0
SMILES: CC(Br)C(=O)Nc1cc(C(F)(F)F)cc(C(F)(F)F)c1 (stereo not shown) [compound 24]

isoTOP-ABPP reactivity ratio, Q9HB90_C358 (RRAGC C358 (Q9HB90)): 2.3
SMILES: C=CC(=O)N(Cc1cccnc1)c1cc(C(F)(F)F)cc(C(F)(F)F)c1 [compound 31]

isoTOP-ABPP ratio (reactivity profile), Q9HB90_C358 (RRAGC C358 (Q9HB90); 500 μm in-vitro ramos_231): 0.9
isoTOP-ABPP ratio (reactivity profile), Q86UV5_C39 (USP48 C39 (Q86UV5); 500 μm in-vitro ramos_231): 1.0
isoTOP-ABPP ratio (reactivity profile), Q9NYL2_C22 (MLTK C22 (Q9NYL2); 500 μm in-vitro ramos_231): 0.8
SMILES: CC(Cl)C(=O)Nc1cc(C(F)(F)F)cc(C(F)(F)F)c1 (stereo not shown) [compound 25]

isoTOP-ABPP ratio (reactivity profile), P50851_C2675 (LRBA C2675 (P50851); 500 μm in-vitro ramos): 0.9
isoTOP-ABPP ratio (reactivity profile), Q9HB90_C358 (RRAGC C358 (Q9HB90); 500 μm in-vitro ramos): 1.0
isoTOP-ABPP reactivity ratio, Q5T1V6_C414 (DDX59 C414 (Q5T1V6); 500 μm, in-vitro_ramos): 2.0
isoTOP-ABPP ratio (reactivity profile), Q9NYL2_C22 (MLTK C22 (Q9NYL2); 500 μm in-vitro ramos): 1.1
SMILES: CCN(CC)c1ccc(S(N)(=O)=O)cc1NC(=O)CCl [compound 30]

isoTOP-ABPP ratio, Q9HB90_C358 (RRAGC C358 (Q9HB90)): 1.5
isoTOP-ABPP ratio, Q5T1V6_C414 (DDX59 C414 (Q5T1V6); 500 μM, invitro, ramos): 1.2
isoTOP-ABPP ratio, Q86UV5_C39 (USP48 C39 (Q86UV5); 231): 0.8
isoTOP-ABPP ratio, Q86UV5_C39 (USP48 C39 (Q86UV5); ramos): 0.6
isoTOP-ABPP ratio Q9NYL2_C22 (MLTK C22 (Q9NYL2); 500 μM, invitro, 231): 5.2
SMILES: O=C(CCl)NCCc1c[nH]c2ccccc12 [compound 13]

isoTOP-ABPP reactivity ratio, P50851_C2675 (LRBA C2675 (P50851); 500 μm, in-vitro_ramos): 1.0
isoTOP-ABPP reactivity ratio, Q5T1V6_C414 (DDX59 C414 (Q5T1V6); 500 μm, in-vitro_ramos): 1.0
isoTOP-ABPP reactivity ratio, Q86UV5_C39 (USP48 C39 (Q86UV5); in-vitro_ramos): 0.7
SMILES: C=CC(=O)N1CCC(c2noc3ccc(F)cc23)CC1 [compound 37]

R value (DMSO/fragment) (LRBA C2675 (P50851); 250 μM, in vitro, MDA-MB-231): 1.1
R value (DMSO/fragment) (RRAGC C358 (Q9HB90); 250 μM, in vitro, MDA-MB-231): 1.5
R value (DMSO/fragment) (USP48 C39 (Q86UV5); MDA-MB-231): 1.4
R value (DMSO/fragment) (USP48 C39 (Q86UV5); Ramos): 1.4
R value (DMSO/fragment) (MLTK C22 (Q9NYL2); 250 μM, in vitro, MDA-MB-231): 20.0
SMILES: COc1ccc(C2CC(c3cccs3)=NN2C(=O)CCl)cc1 (stereo not shown) [compound 4]

isoTOP-ABPP ratio (reactivity profile), P50851_C2675 (LRBA C2675 (P50851); 500 μm in-vitro ramos_231): 1.1
isoTOP-ABPP ratio (reactivity profile), Q86UV5_C39 (USP48 C39 (Q86UV5); 500 μm in-vitro ramos_231): 1.2
isoTOP-ABPP ratio (reactivity profile), Q9NYL2_C22 (MLTK C22 (Q9NYL2); 500 μm in-vitro ramos_231): 1.2
SMILES: O=C(CCl)N1CCN(CC(=O)N2CCOCC2)CC1 [compound 29]

isoTOP-ABPP reactivity profile ratio, Q5T1V6_C414 (DDX59 C414 (Q5T1V6); 500 μm, in-vitro_ramos_231): 0.8
isoTOP-ABPP reactivity profile ratio, Q9NYL2_C22 (MLTK C22 (Q9NYL2); 500 μm, in-vitro_ramos_231): 0.8
SMILES: O=C(CCl)NC1C(O)OC(CO)C(O)C1O (mixture of isomers) [compound 44]

isoTOP-ABPP ratio (reactivity profile), P50851_C2675 (LRBA C2675 (P50851); 500 μm in-vitro ramos): 0.9
SMILES: O=C(/C=C/c1ccccc1)Nc1cc(C(F)(F)F)cc(C(F)(F)F)c1 [compound 26]

isoTOP-ABPP reactivity ratio, Q5T1V6_C414 (DDX59 C414 (Q5T1V6); 500 μm, in-vitro_ramos): 1.4
isoTOP-ABPP reactivity ratio, Q86UV5_C39 (USP48 C39 (Q86UV5); in-vitro_ramos): 1.6
SMILES: C=CC(=O)Nc1cc(C)c(Br)cc1C [compound 40]
